Measured values from ChEMBL document CHEMBL5291721, “A preclinical secondary pharmacology resource illuminates target-adverse drug reaction associations of marketed drugs” (Nat Commun, 2023).

Columns and labels:
[1] = target: 3',5'-cyclic-AMP phosphodiesterase 4A (Homo sapiens, UniProt P27815); type: functional
Estrogen receptor = target: T1, Estrogen receptor (Homo sapiens, UniProt P03372)
T1 sequence (P03372 whole entry): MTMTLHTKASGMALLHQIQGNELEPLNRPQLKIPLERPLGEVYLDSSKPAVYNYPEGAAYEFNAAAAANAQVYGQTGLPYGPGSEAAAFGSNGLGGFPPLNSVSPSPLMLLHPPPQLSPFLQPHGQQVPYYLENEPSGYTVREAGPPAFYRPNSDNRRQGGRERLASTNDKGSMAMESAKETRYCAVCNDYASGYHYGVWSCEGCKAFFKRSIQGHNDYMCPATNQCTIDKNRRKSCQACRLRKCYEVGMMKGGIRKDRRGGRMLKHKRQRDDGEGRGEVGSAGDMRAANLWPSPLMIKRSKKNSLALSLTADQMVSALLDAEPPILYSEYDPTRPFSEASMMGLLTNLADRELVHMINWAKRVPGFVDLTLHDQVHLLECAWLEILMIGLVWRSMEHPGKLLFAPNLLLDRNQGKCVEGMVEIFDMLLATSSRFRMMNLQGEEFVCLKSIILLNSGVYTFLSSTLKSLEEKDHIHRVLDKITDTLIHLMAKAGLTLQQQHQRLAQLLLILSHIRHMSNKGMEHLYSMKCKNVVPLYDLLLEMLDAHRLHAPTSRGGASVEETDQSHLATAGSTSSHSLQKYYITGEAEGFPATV

[2] = target: T2, Alpha-2A adrenergic receptor (Homo sapiens, UniProt P08913)
T2 sequence (P08913 whole entry): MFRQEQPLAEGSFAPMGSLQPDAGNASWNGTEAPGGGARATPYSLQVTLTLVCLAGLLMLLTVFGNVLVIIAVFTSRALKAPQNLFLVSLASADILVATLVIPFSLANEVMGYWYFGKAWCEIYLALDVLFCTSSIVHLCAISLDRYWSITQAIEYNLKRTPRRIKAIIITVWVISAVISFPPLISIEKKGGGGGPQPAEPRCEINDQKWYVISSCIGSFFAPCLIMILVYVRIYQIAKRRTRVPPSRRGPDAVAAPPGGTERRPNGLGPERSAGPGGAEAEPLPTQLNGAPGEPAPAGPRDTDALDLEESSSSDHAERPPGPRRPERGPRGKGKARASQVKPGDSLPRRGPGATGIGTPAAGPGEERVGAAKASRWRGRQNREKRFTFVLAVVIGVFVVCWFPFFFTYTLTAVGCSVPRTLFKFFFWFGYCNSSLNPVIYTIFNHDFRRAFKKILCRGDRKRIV

[3] = target: T3, Amine oxidase [flavin-containing] A (Homo sapiens, UniProt P21397); type: functional
T3 sequence (P21397 whole entry): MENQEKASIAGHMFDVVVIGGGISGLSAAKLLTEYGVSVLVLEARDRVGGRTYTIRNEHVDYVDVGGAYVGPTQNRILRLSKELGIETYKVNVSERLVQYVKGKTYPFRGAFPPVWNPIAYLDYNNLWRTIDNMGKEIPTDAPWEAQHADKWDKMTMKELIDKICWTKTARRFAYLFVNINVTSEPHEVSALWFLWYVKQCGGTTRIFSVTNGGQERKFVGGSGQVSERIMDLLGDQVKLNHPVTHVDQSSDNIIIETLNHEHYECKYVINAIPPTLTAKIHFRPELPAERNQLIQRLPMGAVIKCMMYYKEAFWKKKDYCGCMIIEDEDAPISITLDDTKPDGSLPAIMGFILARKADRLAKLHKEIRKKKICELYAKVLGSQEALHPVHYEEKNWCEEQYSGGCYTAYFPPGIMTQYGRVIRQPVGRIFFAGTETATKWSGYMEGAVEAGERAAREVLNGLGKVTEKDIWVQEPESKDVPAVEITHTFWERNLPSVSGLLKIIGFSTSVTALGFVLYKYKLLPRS

[4] = target: T4, 5-hydroxytryptamine receptor 1A (Homo sapiens, UniProt P08908)
T4 sequence (P08908 whole entry): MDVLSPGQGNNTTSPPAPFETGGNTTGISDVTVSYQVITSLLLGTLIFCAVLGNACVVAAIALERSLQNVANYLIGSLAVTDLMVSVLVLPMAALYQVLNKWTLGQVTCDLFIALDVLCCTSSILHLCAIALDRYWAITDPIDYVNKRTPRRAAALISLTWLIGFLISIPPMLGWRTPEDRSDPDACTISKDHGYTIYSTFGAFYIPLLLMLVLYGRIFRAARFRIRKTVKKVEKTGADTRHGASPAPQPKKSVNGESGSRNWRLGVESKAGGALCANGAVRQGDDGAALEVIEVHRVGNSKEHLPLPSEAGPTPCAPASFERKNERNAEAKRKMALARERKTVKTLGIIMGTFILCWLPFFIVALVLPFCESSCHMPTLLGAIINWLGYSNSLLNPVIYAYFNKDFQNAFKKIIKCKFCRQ

[5] = target: cGMP-inhibited 3',5'-cyclic phosphodiesterase 3A (Homo sapiens, UniProt Q14432); type: functional
[6] = target: Sodium-dependent noradrenaline transporter (Homo sapiens, UniProt P23975)
[7] = target: T5, Alpha-1A adrenergic receptor (Homo sapiens, UniProt P35348); type: functional, cell-based
T5 sequence (P35348 whole entry): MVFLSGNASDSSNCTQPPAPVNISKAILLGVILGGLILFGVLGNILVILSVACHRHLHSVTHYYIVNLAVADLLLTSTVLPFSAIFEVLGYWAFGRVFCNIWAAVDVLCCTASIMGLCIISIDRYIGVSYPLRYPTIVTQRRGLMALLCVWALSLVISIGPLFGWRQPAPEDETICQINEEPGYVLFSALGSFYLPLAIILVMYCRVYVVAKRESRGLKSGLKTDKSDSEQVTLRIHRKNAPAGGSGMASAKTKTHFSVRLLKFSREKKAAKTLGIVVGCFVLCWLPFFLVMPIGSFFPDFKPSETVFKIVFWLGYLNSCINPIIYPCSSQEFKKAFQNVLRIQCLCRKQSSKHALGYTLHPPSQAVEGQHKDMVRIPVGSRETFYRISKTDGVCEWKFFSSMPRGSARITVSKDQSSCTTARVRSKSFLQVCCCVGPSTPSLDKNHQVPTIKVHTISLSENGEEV
Note: assay procedure not described here.

Sodium-dependent noradrenaline transporter, sequence (P23975 whole entry): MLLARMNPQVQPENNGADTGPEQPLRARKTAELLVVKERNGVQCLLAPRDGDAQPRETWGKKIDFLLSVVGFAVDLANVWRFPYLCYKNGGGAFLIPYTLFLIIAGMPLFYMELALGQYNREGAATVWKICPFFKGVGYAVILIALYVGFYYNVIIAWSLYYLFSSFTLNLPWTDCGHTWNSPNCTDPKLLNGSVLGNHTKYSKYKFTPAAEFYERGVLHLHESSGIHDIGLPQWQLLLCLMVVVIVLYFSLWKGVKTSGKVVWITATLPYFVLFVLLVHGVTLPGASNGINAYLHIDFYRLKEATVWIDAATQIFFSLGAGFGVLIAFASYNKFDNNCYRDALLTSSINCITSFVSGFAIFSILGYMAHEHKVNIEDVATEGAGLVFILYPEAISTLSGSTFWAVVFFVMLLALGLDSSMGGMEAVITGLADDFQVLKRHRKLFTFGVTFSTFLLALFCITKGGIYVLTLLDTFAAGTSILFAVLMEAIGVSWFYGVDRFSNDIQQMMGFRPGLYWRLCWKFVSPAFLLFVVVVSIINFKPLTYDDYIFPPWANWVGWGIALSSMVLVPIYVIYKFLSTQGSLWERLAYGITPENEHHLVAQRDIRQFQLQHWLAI
cGMP-inhibited 3',5'-cyclic phosphodiesterase 3A, sequence (Q14432 whole entry): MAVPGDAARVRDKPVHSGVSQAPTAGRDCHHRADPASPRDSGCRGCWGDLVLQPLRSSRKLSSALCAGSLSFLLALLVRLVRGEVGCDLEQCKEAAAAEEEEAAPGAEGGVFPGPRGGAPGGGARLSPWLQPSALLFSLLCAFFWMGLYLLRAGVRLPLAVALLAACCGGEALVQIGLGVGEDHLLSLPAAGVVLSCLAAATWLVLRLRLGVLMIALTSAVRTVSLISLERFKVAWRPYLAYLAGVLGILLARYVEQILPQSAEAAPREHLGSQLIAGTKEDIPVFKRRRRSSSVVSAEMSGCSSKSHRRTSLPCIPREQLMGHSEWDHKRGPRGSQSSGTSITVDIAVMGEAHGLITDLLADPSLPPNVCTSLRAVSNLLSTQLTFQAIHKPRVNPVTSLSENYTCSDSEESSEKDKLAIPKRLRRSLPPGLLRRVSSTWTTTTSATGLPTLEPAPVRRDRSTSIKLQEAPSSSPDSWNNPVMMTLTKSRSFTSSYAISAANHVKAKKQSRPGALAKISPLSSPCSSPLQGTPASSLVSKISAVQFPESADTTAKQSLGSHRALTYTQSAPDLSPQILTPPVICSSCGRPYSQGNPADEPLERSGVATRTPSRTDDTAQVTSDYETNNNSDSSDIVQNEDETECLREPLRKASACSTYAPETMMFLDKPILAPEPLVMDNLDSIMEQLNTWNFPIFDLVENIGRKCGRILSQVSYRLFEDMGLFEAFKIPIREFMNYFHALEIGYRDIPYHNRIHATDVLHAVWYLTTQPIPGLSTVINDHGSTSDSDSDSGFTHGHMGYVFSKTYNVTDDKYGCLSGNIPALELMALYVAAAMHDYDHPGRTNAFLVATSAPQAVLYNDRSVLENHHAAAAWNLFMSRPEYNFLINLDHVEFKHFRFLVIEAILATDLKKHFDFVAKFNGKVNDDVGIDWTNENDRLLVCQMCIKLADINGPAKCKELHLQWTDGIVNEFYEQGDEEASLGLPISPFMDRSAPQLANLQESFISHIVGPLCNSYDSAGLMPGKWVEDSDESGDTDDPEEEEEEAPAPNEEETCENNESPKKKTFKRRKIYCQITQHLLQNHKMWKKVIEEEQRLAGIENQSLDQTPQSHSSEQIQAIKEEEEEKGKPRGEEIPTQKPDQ
3',5'-cyclic-AMP phosphodiesterase 4A, sequence (P27815 whole entry): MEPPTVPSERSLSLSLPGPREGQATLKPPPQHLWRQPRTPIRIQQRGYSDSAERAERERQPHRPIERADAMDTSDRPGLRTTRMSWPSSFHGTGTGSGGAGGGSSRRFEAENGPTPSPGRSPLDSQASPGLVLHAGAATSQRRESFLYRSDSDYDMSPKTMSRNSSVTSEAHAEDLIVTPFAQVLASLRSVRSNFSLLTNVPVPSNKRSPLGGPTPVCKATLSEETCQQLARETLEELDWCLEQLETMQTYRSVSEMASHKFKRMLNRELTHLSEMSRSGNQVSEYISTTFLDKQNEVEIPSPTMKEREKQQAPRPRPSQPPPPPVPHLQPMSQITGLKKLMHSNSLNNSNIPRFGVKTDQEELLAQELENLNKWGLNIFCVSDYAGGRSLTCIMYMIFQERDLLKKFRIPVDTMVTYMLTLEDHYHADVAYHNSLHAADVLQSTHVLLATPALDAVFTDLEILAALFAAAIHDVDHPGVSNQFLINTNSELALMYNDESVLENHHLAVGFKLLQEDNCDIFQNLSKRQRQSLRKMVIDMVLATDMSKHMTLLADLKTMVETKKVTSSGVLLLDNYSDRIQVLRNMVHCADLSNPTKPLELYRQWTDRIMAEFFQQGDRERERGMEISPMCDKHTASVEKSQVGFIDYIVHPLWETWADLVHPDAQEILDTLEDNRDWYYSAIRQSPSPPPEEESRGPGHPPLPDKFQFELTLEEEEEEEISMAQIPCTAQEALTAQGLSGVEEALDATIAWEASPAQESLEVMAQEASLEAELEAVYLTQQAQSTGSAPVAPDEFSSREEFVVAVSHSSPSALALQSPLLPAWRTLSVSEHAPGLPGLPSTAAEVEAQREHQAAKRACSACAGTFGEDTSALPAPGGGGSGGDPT

SMILES | AC50 [1] [µM] | AC50 (Estrogen receptor) [µM] | AC50 [2] [µM] | AC50 [3] [µM] | AC50 [4] [µM] | AC50 [5] [µM] | AC50 [6] [µM] | AC50 [7] [µM]
CN1C(=O)N(C)C2C1N(C)C(=O)N2C (stereo unspecified) [MEBICAR] | > 30 | > 30 | > 30 | > 30 | > 30 | > 30 | > 30 | 
NS(=O)(=O)c1cc2c(cc1Cl)NC(C1CC3C=CC1C3)NS2(=O)=O (stereo unspecified) [CYCLOTHIAZIDE] | > 30 | > 30 | > 30 | > 30 | > 30 | > 30 | > 30 | > 30
Nc1nc2c(ncn2CCC(CO)CO)c(=O)[nH]1 [PENCICLOVIR] | > 30 | > 30 | > 30 | > 30 | > 30 | > 30 | > 30 | > 30
O=C(NC1CCN(CCCCC2(C(=O)NCC(F)(F)F)c3ccccc3-c3ccccc32)CC1)c1ccccc1-c1ccc(C(F)(F)F)cc1 [LOMITAPIDE] | > 30 | > 30 | 13.2 | > 30 | > 30 | > 30 | 2.2 | > 30
Nc1ccc(/N=N/c2ccccc2)c(N)n1 [PHENAZOPYRIDINE] | 22.5 | > 30 | > 30 | > 30 | > 30 | 20.9 | 3.85 | 
Cn1cc[nH]c1=S [METHIMAZOLE] | > 30 | > 30 | > 30 | > 30 | > 30 | > 30 | > 30 | > 30
CC(C)Cc1ccc(C(C)C(=O)NO)cc1 (stereo unspecified) [IBUPROXAM] | 24.2 | > 30 | > 30 | > 30 | > 30 | > 30 | > 30 | > 30
O=[N+]([O-])c1cncn1CCN1CCOCC1 [NIMORAZOLE] | > 30 | > 30 | > 30 | > 30 | > 30 | > 30 | > 30 | > 30
CCC1C(C)=NN=C(c2ccc(OC)c(OC)c2)c2cc(OC)c(OC)cc21 (stereo unspecified) [TOFISOPAM] | 0.319 | > 30 | > 30 | > 30 | > 30 | 6.62 | > 30 | > 30
CCCC[N+]1(C)[C@@H]2C[C@@H](OC(=O)[C@H](CO)c3ccccc3)C[C@H]1[C@@H]1O[C@@H]12 (stereo partly specified) [BUTYLSCOPOLAMINE] | > 30 | > 30 | > 30 | > 30 | > 30 | > 30 | > 30 | > 30
CCOC(=O)CC(SP(=S)(OC)OC)C(=O)OCC (stereo unspecified) [MALATHION] | > 30 | > 30 | > 30 | > 30 | > 30 | > 30 | > 30 | > 30
COc1ccc2c(c1)OC(C)(C)C(c1ccccc1)C2c1ccc(OCCN2CCCC2)cc1 (stereo unspecified) [ORMELOXIFENE] | > 30 | 1.29 | 10.6 | > 30 | 9.91 | > 30 | 4.9 | 13.4
COc1cc2c(cc1OC)[C@H]1C[C@@H](OC(=O)[C@@H](N)C(C)C)[C@H](CC(C)C)CN1CC2 [VALBENAZINE] | > 30 | > 30 | > 30 | > 30 |  | > 30 | > 30 | > 30
CCO[C@@H](Cc1ccc(OCCn2c(C)ccc2-c2ccc(SC)cc2)cc1)C(=O)O [SAROGLITAZAR] | 11.1 | > 30 | > 30 | > 30 | > 30 | > 30 | 24.5 | 15
CCS(=O)(=O)N1CC(CC#N)(n2cc(-c3ncnc4[nH]ccc34)cn2)C1 [BARICITINIB] | > 30 | > 30 | > 30 | > 30 | > 30 | > 30 | > 30 | > 30
CC(C)=CCC1C(=O)N(c2ccccc2)N(c2ccccc2)C1=O [FEPRAZONE] | > 30 | > 30 | > 30 | > 30 | > 30 | > 30 | > 30 | 
N/N=c1/cc2c(n[nH]1)CCN(C(=O)c1ccccc1)C2 [ENDRALAZINE] | > 30 | > 30 | > 30 | > 30 | > 30 | > 30 | > 30 | 
C1N2CN3CN1CN(C2)C3 [METHENAMINE] | > 30 |  | > 30 | > 30 | > 30 | > 30 | > 30 | > 30
COCC1=C(C(=O)OC(C)OC(=O)OC(C)C)N2C(=O)[C@@H](NC(=O)/C(=N\OC)c3csc(N)n3)[C@H]2SC1 (stereo partly specified) [CEFPODOXIME PROXETIL] | > 30 | > 30 | > 30 | > 30 | > 30 | > 30 | > 30 | 
CS(=O)(=O)Nc1cc2occ(NC=O)c(=O)c2cc1Oc1ccccc1 [IGURATIMOD] | 1.75 |  | > 30 | > 30 | > 30 | > 30 | > 30 | > 30
O=C1CCC(N2C(=O)c3ccccc3C2=O)C(=O)N1 (stereo unspecified) [THALIDOMIDE] | > 30 |  | > 30 | > 30 | > 30 | > 30 | > 30 | > 30
O=C(Cn1ccnc1[N+](=O)[O-])NCc1ccccc1 [BENZNIDAZOLE] | > 30 | > 30 | > 30 | > 30 | > 30 | > 30 | > 30 | 
